Experimental data from patent US20240207250A1, “AGENT FOR PROMOTING LIPID REDUCTION” (MITSUBISHI GAS CHEMICAL COMPANY, INC., priority 2021, published 2024).

Tests used:
Format in all cases: in vivo
daphnids (Daphnia magna) [1] = test: Measurement of fat mass of daphnids by Nile red fluorescence (lipid reduction promotion test); settings: for Body Fat Mass vs Comparative Example 1 (%), Average: Nile red fluorescence intensity, Comparative Example 1 (no IPQ) = 100, 5 daphnids, 4 days after addition to breeding water, H-IPQ 50 μM or 200 μM, Arg-IPQ 80 mg/L, Leu-IPQ 80 mg/L, ECGC 1 mg/L, carnitine 2 mg/L; for body fat mass as compared with the control (Comparative Example 1), in words: daphnids bred 4 days with substance in breeding water
Protocol: In the present examples, […] (scientific name: Daphnia magna) were used in a lipid reduction promotion test. As chlorella (scientific name: Chlorella vulgaris) used as a feed for the […], a product of […] Center LLC was used. Specifically, parent […] bred in a water tank at 22° C. under a day cycle of an 8/16-hour light/dark cycle. The chlorella used as the feed was supplied in an amount of 8×10^7 on Monday, Wednesday, and Friday. Breeding water held in the water tank was exchanged at a frequency of once a week. Under these breeding conditions, child […] born from the parent […] used in the following examples. 10 child […] bred in 500 mL of mineral water (at 22° C.) under a day cycle of an 8/16-hour light/dark cycle. […] 10 child […] bred in 500 mL of mineral water (at 22° C.) under a day cycle of an 8/16-hour light/dark cycle. […] 10 child […] bred in 500 mL of mineral water (at 22° C.) under a day cycle of an 8/16-hour light/dark cycle. […] 10 child […] bred in 500 mL of mineral water (at 22° C.) under a day cycle of an 8/16-hour light/dark cycle. […] 10 child […] bred in 500 mL of mineral water (at 22° C.) under a day cycle of an 8/16-hour light/dark cycle. […] 10 child […] bred in 500 mL of mineral water (at 22° C.) under a day cycle of an 8/16-hour light/dark cycle. […] The fat mass was measured in accordance with Non Patent Literature 4. […] Thereafter, the […] washed with water, and taken out. Water was added thereto in an amount of 300 μL per […], and the resultant was ground by applying ultrasonic waves for 15 minutes. The thus obtained ground liquid was centrifuged to collect a supernatant. The resultant was measured for a fluorescence intensity through 485 nm excitation/535 nm detection using a plate reader. This measurement operation was performed on 5 […].

daphnids (Daphnia magna) [2] = test: Caloric restriction equivalent amount from correlation between amount of feed and fat mass; settings: calculated from fat mass (fluorescence intensity) with feed/fat mass regression line; Comparative Example 1 = 0
Text: Then, the logarithm of the amount of the feed and the fat mass (fluorescence intensity) obtained after the breeding were plotted as illustrated in FIG. 2 (n=5). When an approximate straight line was drawn on the plots, the approximate straight line was represented by the following equation, and the correlation coefficient was R=0.996. [formula] [formula] [formula] This equation of the approximate straight line can be regarded as a relational expression between the logarithm of the amount of the feed, namely, calorie intake, and the fat mass (fluorescence intensity) after the breeding.

daphnids (Daphnia magna) [3] = test: Measurement of body length of daphnids; settings: for Body Length (mm), Average: daphnids bred 4 days with substance, Arg-IPQ 80 mg/L, Leu-IPQ 80 mg/L, ECGC 1 mg/L, carnitine 2 mg/L, control 2.37 mm; for body length as compared with the control (Comparative Example 1), in words: daphnids bred 4 days with substance in breeding water
daphnids (Daphnia magna) [4] = test: Evaluation of movement capability of daphnids (video analysis of moving distance); settings: for moving distance for 30 seconds, Daphnid 1: individual Daphnid 1, control 20.01 cm; for moving distance for 30 seconds, Daphnid 2: individual Daphnid 2, control 22.67 cm; for moving distance for 30 seconds, Daphnid 3: individual Daphnid 3, control 18.62 cm; for amount of exercise improved (times vs control): moving distance relative to control daphnids; for moving distance for 30 seconds, Average ± Standard Deviation: three daphnids, control 20.46 ± 2.06 cm
Protocol: The daphnids bred under condition of no IPQ described in Comparative Example 1 (control), and the daphnids bred in the presence of H-IPQ, Arg-IPQ, and Leu-IPQ respectively described in Examples 1 to 3 were used. 20 mL of mineral water was put in each of four 100 mm-glass petri dishes, into each of which one daphnid bred in Comparative Example 1 and Examples 1 to 3 was transferred. These petri dishes were placed to be adjacent to one another, and the movement for 1 minute of the daphnids was recorded. This operation was repeated three times using different individuals. Then, Kinovea video analysis software was used to analyze a moving distance for 30 seconds of each daphnid.
It is noted that the daphnids were in a state of always moving in the test, which is regarded as a state of exercise with an intensity of 3 METs or more in terms of human exercise intensity.

SMILES | Body Fat Mass vs Comparative Example 1 (%), Average (daphnids (Daphnia magna) [1]) [%] | body fat mass as compared with the control (Comparative Example 1), in words (daphnids (Daphnia magna) [1]) | Caloric Restriction Equivalent Amount (0 meaning no caloric restriction) (daphnids (Daphnia magna) [2]) [%] | Body Length (mm), Average (daphnids (Daphnia magna) [3]) [mm] | body length as compared with the control (Comparative Example 1), in words (daphnids (Daphnia magna) [3]) | moving distance for 30 seconds, Daphnid 1 (daphnids (Daphnia magna) [4]) [cm] | moving distance for 30 seconds, Daphnid 2 (daphnids (Daphnia magna) [4]) [cm] | moving distance for 30 seconds, Daphnid 3 (daphnids (Daphnia magna) [4]) [cm] | amount of exercise improved (times vs control) (daphnids (Daphnia magna) [4]) | moving distance for 30 seconds, Average ± Standard Deviation (daphnids (Daphnia magna) [4]) [cm]
C[N+](C)(C)CC(O)CC(=O)[O-] (stereo not shown) [Comparative Example 3, carnitine, reference compound] | 133.8 | increased | −231 | 2.82 | – | – | – | – | – | –
O=C(O[C@@H]1Cc2c(O)cc(O)cc2O[C@@H]1c1cc(O)c(O)c(O)c1)c1cc(O)c(O)c(O)c1 [Comparative Example 2, Epigallocatechin Gallate, reference compound] | 102.0 | neither increased not reduced | −7 | 2.43 | – | – | – | – | – | –
CC(C)Cc1nc2c(=O)c3cc(C(=O)O)[nH]c3c3c(C(=O)O)cc(C(=O)O)n1c23 [Example 3, leucine residue IPQ] | 69.9 | reduced | 62 | 2.52 | grown to be larger | 26.78 | 21.56 | 20.53 | 1.1 times | 22.96 ± 3.35
N=C(N)NCCCc1nc2c(=O)c3cc(C(=O)O)[nH]c3c3c(C(=O)[O-])cc(C(=O)[O-])n1c23.[Na+].[Na+] [Example 2, Arginine Residue IPQ Disodium] | 79.7 | reduced | 45 | 2.64 | grown to be larger | 25.33 | 30.35 | 30.47 | 1.4 times | 28.72 ± 2.93
O=C([O-])c1cc2c(=O)c3ncn4c(C(=O)[O-])cc(C(=O)[O-])c(c2[nH]1)c34.[Na+].[Na+].[Na+] [Example 1, glycine residue IPQ trisodium] | 60.3 | reduced | 73 | – | not grown to be very large | 24.23 | 21.43 | 27.85 | about 1.2 times | 24.50 ± 3.22
